The experiment addresses T1, 3-oxo-5-alpha-steroid 4-dehydrogenase 1 (Homo sapiens, UniProt P18405).
T1 sequence (P18405 whole entry): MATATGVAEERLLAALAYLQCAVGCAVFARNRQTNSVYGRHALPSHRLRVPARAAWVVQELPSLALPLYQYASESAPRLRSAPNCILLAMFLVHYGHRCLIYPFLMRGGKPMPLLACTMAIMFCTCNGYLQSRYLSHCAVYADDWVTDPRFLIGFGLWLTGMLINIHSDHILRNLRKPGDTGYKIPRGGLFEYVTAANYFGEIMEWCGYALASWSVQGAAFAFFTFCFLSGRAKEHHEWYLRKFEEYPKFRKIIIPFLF
Nature of the experiment: In vitro inhibitory concentration required to inhibit Steroid 5-alpha-reductase type 1 in cultured Hs 68 human foreskin fibroblast cells. The format is cell-based. As to conditions: read-out: Log 1/IC50 (converted).

Consider 16 compounds from ChEMBL document CHEMBL1127006, “QSAR study of benzoquinolinones as inhibitors of human type 1 5--reductase” (Bioorg Med Chem Lett, 1993).

`CN1C(=O)CCC2c3ccc(Cl)cc3CCC21` (stereo unspecified): the IC50 is 7.94 nM.
In the case of `COc1ccc2c(c1)CCC1C2CCC(=O)N1C` (stereo unspecified) it was 115 nM.
Next, `CN1C(=O)CCC2=C1CCc1cc(Cl)ccc12`: 174 nM; `CN1C(=O)CCC2=C1CCc1ccccc12`: 1000 nM; `CN1C(=O)CCC2c3ccc(Br)cc3CCC21` (stereo unspecified): 34.7 nM.
Next, `CN1C(=O)CCC2c3ccc(F)cc3CCC21` (stereo unspecified): 34.7 nM; `CN1C(=O)CCC2(C)c3ccccc3CCC12` (stereo unspecified): 1000 nM; `CN1C(=O)CCC2=C1CCc1cc(F)ccc12`: 151 nM.
As to `CN1C(=O)CCC2(C)c3ccc(F)cc3CCC12` (stereo unspecified), the IC50 is 115 nM.
Next, `CN1C(=O)CCC2(C)c3ccc(Cl)cc3CCC12` (stereo unspecified): 32.4 nM; `CN1C(=O)CCC2=C1CCc1cc(Br)ccc12`: 60.3 nM; `Cc1ccc2c(c1)CCC1C2CCC(=O)N1C` (stereo unspecified): 32.4 nM.
In the case of `CN1C(=O)CCC2c3ccc(C(F)(F)F)cc3CCC21` (stereo unspecified) it was 89.1 nM.
As to `CN1C(=O)CCC2c3ccc(I)cc3CCC21` (stereo unspecified), the IC50 was 79.4 nM.
For `CN1C(=O)CCC2c3ccccc3CCC21` (stereo unspecified), the IC50 is 562 nM.
In the case of `Cc1ccc2c(c1)CCC1=C2CCC(=O)N1C` it was 32.4 nM.
